# Test results reported in patent publication US5384417A, “Heptitols” (priority 1994, dated 1995).
# Read-outs that look alike come from different tables or passages of the source.
# Experiments:
# Type in all cases: biochemical
# α-Galactosidase = molecular target: T1, α-Galactosidase (Homo sapiens, UniProt P06280); assay: inhibition of human liver α-galactosidase; details: read-out: % Inhibition of Glycosidase Activity, α-Galactosidase
# T1 construct: Human liver glycosidases were assayed; from tissue; host or cells: human liver
# T1 sequence (P06280 32-429): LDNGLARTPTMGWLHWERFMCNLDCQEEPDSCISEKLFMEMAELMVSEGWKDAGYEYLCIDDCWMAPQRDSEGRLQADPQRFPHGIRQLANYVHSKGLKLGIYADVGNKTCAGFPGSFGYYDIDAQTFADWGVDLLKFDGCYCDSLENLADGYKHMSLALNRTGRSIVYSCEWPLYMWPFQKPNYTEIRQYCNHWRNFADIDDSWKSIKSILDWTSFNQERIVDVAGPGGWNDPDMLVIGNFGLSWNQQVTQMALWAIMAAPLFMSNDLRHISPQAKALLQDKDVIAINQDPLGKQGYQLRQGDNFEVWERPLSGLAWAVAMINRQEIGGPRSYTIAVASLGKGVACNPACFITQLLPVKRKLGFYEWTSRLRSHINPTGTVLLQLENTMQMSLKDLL
# Method: (§1) Human liver glycosidases were assayed in the absence and presence [1 mM] of each of the potential inhibitors, using the appropriate buffered 4-methylumbelliferyl glycosides as substrates, as previously described.^17 See Table I, below.
# β-Galactosidase = molecular target: T2, β-Galactosidase (Homo sapiens, UniProt P16278); assay: inhibition of human liver β-galactosidase; details: 1 mM inhibitor; read-out: % Inhibition of Glycosidase Activity, β-Galactosidase
# T2 construct: Human liver glycosidases were assayed; from tissue; host or cells: human liver
# T2 sequence (P16278 29-677): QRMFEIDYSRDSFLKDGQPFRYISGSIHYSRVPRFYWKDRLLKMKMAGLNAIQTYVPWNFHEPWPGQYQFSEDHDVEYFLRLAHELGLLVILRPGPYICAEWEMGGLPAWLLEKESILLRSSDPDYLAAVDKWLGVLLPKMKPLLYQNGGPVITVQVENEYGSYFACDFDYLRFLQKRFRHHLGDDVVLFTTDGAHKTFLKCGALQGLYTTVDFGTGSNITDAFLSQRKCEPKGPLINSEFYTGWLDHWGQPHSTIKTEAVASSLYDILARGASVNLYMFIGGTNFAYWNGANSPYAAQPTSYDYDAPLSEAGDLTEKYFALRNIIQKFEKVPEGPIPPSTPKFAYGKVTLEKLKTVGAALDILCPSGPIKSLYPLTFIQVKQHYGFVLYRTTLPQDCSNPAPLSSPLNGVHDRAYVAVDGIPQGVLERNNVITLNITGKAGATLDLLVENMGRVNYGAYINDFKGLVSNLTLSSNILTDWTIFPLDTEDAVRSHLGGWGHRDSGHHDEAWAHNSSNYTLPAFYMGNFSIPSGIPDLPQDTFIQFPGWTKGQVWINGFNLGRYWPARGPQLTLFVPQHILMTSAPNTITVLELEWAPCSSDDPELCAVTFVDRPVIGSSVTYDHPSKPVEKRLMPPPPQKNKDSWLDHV
# Method: as §1
# β-Glucuronidase = molecular target: T3, β-Glucuronidase (Homo sapiens, UniProt P08236); assay: inhibition of human liver β-glucuronidase; details: read-out: % Inhibition of Glycosidase Activity, β-Glucuronidase
# T3 construct: Human liver glycosidases were assayed; from tissue; host or cells: human liver
# T3 sequence (P08236 23-633 limits assumed): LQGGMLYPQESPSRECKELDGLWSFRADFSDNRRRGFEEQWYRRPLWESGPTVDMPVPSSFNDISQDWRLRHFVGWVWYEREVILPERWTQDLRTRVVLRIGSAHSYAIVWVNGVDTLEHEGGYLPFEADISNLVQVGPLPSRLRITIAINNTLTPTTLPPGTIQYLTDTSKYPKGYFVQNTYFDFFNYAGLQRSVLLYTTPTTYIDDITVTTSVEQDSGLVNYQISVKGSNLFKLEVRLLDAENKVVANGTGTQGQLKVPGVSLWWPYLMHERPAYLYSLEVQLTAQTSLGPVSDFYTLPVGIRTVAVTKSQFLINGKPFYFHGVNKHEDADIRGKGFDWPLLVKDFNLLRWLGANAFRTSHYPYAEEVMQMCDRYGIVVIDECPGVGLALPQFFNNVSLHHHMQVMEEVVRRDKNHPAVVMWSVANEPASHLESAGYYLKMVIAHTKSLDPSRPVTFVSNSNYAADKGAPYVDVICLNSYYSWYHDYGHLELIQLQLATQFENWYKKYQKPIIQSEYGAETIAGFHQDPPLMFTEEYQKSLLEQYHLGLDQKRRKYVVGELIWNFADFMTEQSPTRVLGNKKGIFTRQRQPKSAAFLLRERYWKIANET
# Method: as §1
# α-Arabinosidase = assay: inhibition of human liver α-arabinosidase; details: 1 mM inhibitor
# Method: as §1
# α-mannosidases = assay: inhibition of human liver α-mannosidases (multiple forms taken together); details: for inhibition of α-mannosidases (in words): 1 mM
# Method: as §1
Compound,inhibition at 1000 µM (α-Galactosidase; 1 mM inhibitor) [%],inhibition at 1000 µM (β-Galactosidase) [%],inhibition at 1000 µM (β-Glucuronidase; 1 mM inhibitor) [%],"% Inhibition of Glycosidase Activity, α-Arabinosidase (α-Arabinosidase) [%]",inhibition of α-mannosidases (in words) (α-mannosidases),inhibitory activity against α-mannosidase relative to DMJ (α-mannosidases; compared with DMJ (1)),inhibition at 1000 µM (α-Galactosidase) [%],inhibition at 1000 µM (β-Glucuronidase) [%],selectivity for α-mannosidases (in words) (α-mannosidases; compared with parent compound DMJ (1)),inhibition of α-mannosidases (in words) (α-mannosidases; listed as α-(aminomethyl)-1-deoxy-mannofuranose (5))
"OC[C@@H](O)[C@H]1N[C@H](CO)[C@@H](O)[C@H]1O [αHomoDIM (4), 2,5-dideoxy-2,5-imino-D-glycero-D-talo-heptitol]",11,35,0,25,still retaining significant inhibitory properties towards α-mannosidases,about twice as effective as DMJ,–,–,–,–
OC[C@@H](O)[C@H]1NC[C@@H](O)[C@H]1O [DIM (3)],0,76,9,66,much more potent inhibitor than the piperidine analogues (1) and (2) of all the mannosidases investigated,–,–,–,–,–
"OC[C@H]1NC[C@@H](O)[C@@H](O)[C@@H]1O [DMJ (1), deoxymannojirimycin]",–,–,–,5,–,–,0,53,–,–
OC[C@H]1N[C@H](CO)[C@@H](O)C(O)[C@@H]1O (some centres unmarked) [αHomoDMJ (2)],0,0,0,0,does not affect appreciably the inhibition of the multiple forms of α-mannosidase,–,–,–,much more selective inhibitor of α-mannosidases than is the parent compound DMJ (1),–
"NC[C@H]1O[C@H]([C@H](O)CO)[C@H](O)[C@@H]1O [Manhepamine (5), 1-amino-2,5-anhydro-1-deoxy-D-glycero-D-talo-heptitol]",0,0,7,0,did not inhibit any of the α-mannosidases,–,–,–,–,relatively inactive against α-mannosidases
